Test results reported in PubChem BioAssay (NCI).
“And” between values parts separate entries of the source, which are not always exact repeats. Equal entries are not always repeated.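 The compound was tested at five concentrations on cells cultured in 96-well plates, with a 48-hour exposure period. Here, GI50 denotes the concentration required for 50% inhibition of growth. TGI is the concentration that stops growth completely.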

Assays:
Assay in all cases: DTP human tumour cell line panel, 48 h
CCRF-CEM leukemia = tested on: CCRF-CEM leukemia
EKVX NSCLC = tested on: EKVX NSCLC
HCT-15 colon = tested on: HCT-15 colon
HL-60(TB) leukemia = tested on: HL-60(TB) leukemia
HS 578T breast = tested on: HS 578T breast
MOLT-4 leukemia = tested on: MOLT-4 leukemia
NCI/ADR-RES ovarian = tested on: NCI/ADR-RES ovarian
OVCAR-4 ovarian = tested on: OVCAR-4 ovarian
PC-3 prostate = tested on: PC-3 prostate
SK-OV-3 ovarian = tested on: SK-OV-3 ovarian

With `O=C(CCCCCn1c2ccccc2c2c3c(c4c5ccccc5[nH]c4c21)C(=O)N(O)C3=O)N1CCOCC1` the GI50 (CCRF-CEM leukemia) was 1.43 µM, the TGI (CCRF-CEM leukemia) was 4.93 µM and the GI50 (EKVX NSCLC) was 4.62 µM. The TGI (EKVX NSCLC) was 43.3 µM, the GI50 (HCT-15 colon) was 2.67 µM and the TGI (HCT-15 colon) was 8.32 µM. It also gave a GI50 (HL-60(TB) leukemia) of 2.01 µM, a TGI (HL-60(TB) leukemia) of 5.45 µM and a GI50 (HS 578T breast) of 2.78 µM. The TGI (HS 578T breast) was 7.95 µM, the GI50 (MOLT-4 leukemia) was 1.88 µM and the TGI (MOLT-4 leukemia) was 5.36 µM. It also gave a GI50 (NCI/ADR-RES ovarian) of 5.93 µM, a TGI (NCI/ADR-RES ovarian) of over 100 µM and a GI50 (OVCAR-4 ovarian) of 3.57 µM. It also gave a TGI (OVCAR-4 ovarian) of over 100 µM, a GI50 (PC-3 prostate) of 2.28 µM and a TGI (PC-3 prostate) of 6.22 µM. The GI50 (SK-OV-3 ovarian) was 2.27 µM and the TGI (SK-OV-3 ovarian) was 5.81 µM.
`Nc1nc(Cl)cc2c1ncn2C1OC(CO)C(O)C1O` (stereo not given) showed a GI50 (CCRF-CEM leukemia) of over 100 µM, a TGI (CCRF-CEM leukemia) of over 100 µM and a GI50 (EKVX NSCLC) of over 100 µM. The TGI (EKVX NSCLC) was over 100 µM, the GI50 (HCT-15 colon) was over 100 µM and the TGI (HCT-15 colon) was over 100 µM. It also gave a GI50 (HL-60(TB) leukemia) of over 100 µM, a TGI (HL-60(TB) leukemia) of over 100 µM and a GI50 (HS 578T breast) of over 100 µM. For the same molecule, the TGI (HS 578T breast) was over 100 µM, the GI50 (MOLT-4 leukemia) was over 100 µM and the TGI (MOLT-4 leukemia) was over 100 µM. The GI50 (NCI/ADR-RES ovarian) was over 100 µM, the TGI (NCI/ADR-RES ovarian) was over 100 µM and the GI50 (OVCAR-4 ovarian) was over 100 µM. It also gave a TGI (OVCAR-4 ovarian) of over 100 µM, a GI50 (PC-3 prostate) of over 100 µM and a TGI (PC-3 prostate) of over 100 µM. For the same molecule, the GI50 (SK-OV-3 ovarian) was over 100 µM and the TGI (SK-OV-3 ovarian) was over 100 µM.
Molecule `Cc1cc(C)c2nc(Nc3nc(C)c(C)c(=O)[nH]3)nc(C)c2c1` has a GI50 (CCRF-CEM leukemia) of 2.72 µM, a TGI (CCRF-CEM leukemia) of 8.61 µM and a GI50 (EKVX NSCLC) of 2.58 µM. It also gave a TGI (EKVX NSCLC) of 10.9 µM, a GI50 (HCT-15 colon) of 2.94 µM and a TGI (HCT-15 colon) of 14.5 µM. It also gave a GI50 (HL-60(TB) leukemia) of 2.53 µM, a TGI (HL-60(TB) leukemia) of 6.98 µM and a GI50 (HS 578T breast) of 4.53 µM. The TGI (HS 578T breast) was 34.1 µM, the GI50 (MOLT-4 leukemia) was 2.35 µM and the TGI (MOLT-4 leukemia) was 9.37 µM. The GI50 (NCI/ADR-RES ovarian) was 4.12 µM, the TGI (NCI/ADR-RES ovarian) was 57.3 µM and the GI50 (OVCAR-4 ovarian) was 3.27 µM. The TGI (OVCAR-4 ovarian) was 15.6 µM, the GI50 (PC-3 prostate) was 2.96 µM and the TGI (PC-3 prostate) was 15.1 µM. It also gave a GI50 (SK-OV-3 ovarian) of 2.5 µM and a TGI (SK-OV-3 ovarian) of 10.3 µM.
With `NS(=O)(=O)OC[C@H]1O[C@@H](n2cnc3c(N[C@H]4CCc5ccccc54)ncnc32)[C@H](O)[C@@H]1O` the GI50 (CCRF-CEM leukemia) was 0.0419 µM, the TGI (CCRF-CEM leukemia) was over 100 µM and the GI50 (EKVX NSCLC) was 0.349 µM. For the same molecule, the TGI (EKVX NSCLC) was 9.07 µM, the GI50 (HCT-15 colon) was 0.857 µM and the TGI (HCT-15 colon) was 7.14 µM. For the same molecule, the GI50 (HL-60(TB) leukemia) was 0.0482 µM, the TGI (HL-60(TB) leukemia) was 1.44 µM and the GI50 (HS 578T breast) was 0.432 µM. It also gave a TGI (HS 578T breast) of 6.93 µM, a GI50 (MOLT-4 leukemia) of 0.22 µM and a TGI (MOLT-4 leukemia) of 1.99 µM. For the same molecule, the GI50 (NCI/ADR-RES ovarian) was 5.05 µM, the TGI (NCI/ADR-RES ovarian) was over 100 µM and the GI50 (OVCAR-4 ovarian) was 0.243 µM. For the same molecule, the TGI (OVCAR-4 ovarian) was 0.626 µM, the GI50 (PC-3 prostate) was 0.337 µM and the TGI (PC-3 prostate) was 2.14 µM. It also gave a GI50 (SK-OV-3 ovarian) of 0.234 µM and a TGI (SK-OV-3 ovarian) of 0.644 µM.
Molecule `O=c1cc(N2CCOCC2)oc2c(-c3ccccc3)cccc12` has a GI50 (CCRF-CEM leukemia) of 8.59 µM, a TGI (CCRF-CEM leukemia) of over 100 µM and a GI50 (EKVX NSCLC) of 5.22 µM. For the same molecule, the TGI (EKVX NSCLC) was > 71 µM and 23.2 µM, the GI50 (HCT-15 colon) was 4.98 µM and the TGI (HCT-15 colon) was > 100 µM and 48.7 µM. For the same molecule, the GI50 (HL-60(TB) leukemia) was 3.38 µM, the TGI (HL-60(TB) leukemia) was 38.2 µM and > 100 µM and the GI50 (HS 578T breast) was 3.16 µM. For the same molecule, the TGI (HS 578T breast) was > 30.6 µM and 11.4 µM, the GI50 (MOLT-4 leukemia) was 5.46 µM and the TGI (MOLT-4 leukemia) was > 100 µM and 92.8 µM. For the same molecule, the GI50 (NCI/ADR-RES ovarian) was 6.35 µM, the TGI (NCI/ADR-RES ovarian) was 85.2 µM and 24.3 µM and the GI50 (OVCAR-4 ovarian) was 3.5 µM. The TGI (OVCAR-4 ovarian) was > 61.9 µM and 75.5 µM, the GI50 (PC-3 prostate) was 2.96 µM and the TGI (PC-3 prostate) was over 100 µM. The GI50 (SK-OV-3 ovarian) was 6.92 µM and the TGI (SK-OV-3 ovarian) was 62.4 µM and 60.9 µM.
`Cc1ccc(NC(=O)C(=O)C2C(=O)C3=C(CC2(C)C)NC2C=CC=CC2S3)c(C)c1` (stereo not given) was tested, and the TGI (CCRF-CEM leukemia) was over 100 µM, the TGI (EKVX NSCLC) was over 100 µM and the TGI (HCT-15 colon) was over 100 µM. The TGI (HL-60(TB) leukemia) was over 100 µM, the TGI (HS 578T breast) was over 100 µM and the TGI (MOLT-4 leukemia) was over 100 µM. It also gave a TGI (NCI/ADR-RES ovarian) of over 100 µM, a TGI (OVCAR-4 ovarian) of over 100 µM and a TGI (PC-3 prostate) of over 100 µM. For the same molecule, the TGI (SK-OV-3 ovarian) was over 100 µM.
